In a melting point compilation (Tetko et al.; mined from patent text by program, amines drawn as free bases though some values may be those of a salt):

SMILES	melting point [°C]
CC(=O)Nc1ccc(OCC(F)(F)F)cc1[N+](=O)[O-]	117 to 118
COc1ccc(C2C(C#N)=C(N)OC3=C2C(=O)CC(C)(C)C3)cc1 (centres undefined)	197 to 200
CCCCCCCCCC/C=C/c1ccccc1/C=C/C(=O)O	85 to 86
C=CCSc1nc(=O)[nH]cc1F	150 to 152
CCNC(=O)Nc1ncc(-c2ccncc2)cn1	241 to 246
CCCCC1Cc2c(c3cccnc3n(-c3ccc(C)cc3)c2=O)O1 (centres undefined)	282 to 284
CN(C)S(=O)(=O)c1cc2c(O)cccc2o1	150 to 153
O=C1Nc2ccccc2C(c2ccccc2)N1C1CCN(CC2CC2)CC1 (centres undefined)	276 to 281
CS(=O)(=O)c1ccc(-c2cc(/C=C/CO)nn2CC2CCCCC2)cc1	49 to 52
O=S(=O)(Nc1ccc(Oc2cccc3cccnc23)c(Cl)c1)c1ccc(Cl)cc1	198
COc1cc2c(cc1OC)-c1ccc(OC)c(OC)c1C2=Cc1ccnc2ccccc12	203 to 205
CCCCCCCCCCCCCCCCC[C@@H](O)C[C@H]1OC(=O)[C@@H]1CCC	84 to 85
CCCCCNS(=O)(=O)NC(=O)OCc1ccccc1	142 to 143
COc1ccc(Cl)n2nc(S(=O)(=O)Nc3c(F)cccc3F)nc12	190 to 191
COc1cccc(CN=Cc2cccc(O)c2)c1	103
Cc1cccc2c(=O)[nH]c(=O)[nH]c12	170
COc1cccc(-c2cc(=O)c3cc(OCCCCCN4CCC(O)CC4)ccc3o2)c1	115 to 116
O=C1Cc2cc(NC(=O)C(=O)N3CCC(Cc4ccc(Cl)cc4)CC3)ccc2N1	195
CCN(CC)CCNC(=O)N1CCC(S(=O)(=O)c2ccc(Cl)cc2)C1 (centres undefined)	86 to 87.5
CS(=O)(=O)c1ccc(-c2cnn(CC(=O)c3ccc(C(F)(F)F)cc3)c(=O)c2-c2ccc(F)cc2)cc1	205 to 206
O=C(O)[C@H](Cc1ccccc1)NC(=S)Cc1ccccc1	63 to 65
CCOC(=O)c1ncn2c1COc1ccccc1-2	135 to 137
Cc1c(Cl)cccc1NC(=O)NCc1ccc2c(c1)CN(C1CCC(=O)NC1=O)C2=O (centres undefined)	252 to 254
C(#Cc1ccccc1)CCN1CCC(c2ccccc2)CC1	65 to 66
FC(F)(F)c1nc2cnc3ccccc3c2[nH]1	252 to 254
COc1ccccc1N1CCN(C[C@@H](CC2CCCCC2)NC(=O)C2(C)CCCCC2)CC1	119 to 121

SMILES	melting point [°C]
CCCCCCCCCCCCCCOc1ccccc1CBr	35 to 36
COc1cc(C2(CNC(=O)Nc3c(C(C)C)cccc3C(C)C)CCC2)cc(OC)c1OC	145 to 147
CN1Cc2c(I)ncn2-c2ccc(F)cc2C1=O	187 to 188
O=C(c1ccccc1)c1cccc2c1CCC2C(=O)O (centres undefined)	100 to 102
CCCn1c(COCC)nc2c(N)nc3cc(O)ccc3c21	> 250
COc1ccc(C(C)(C)C)c(O)c1C(=O)Oc1ccccc1	74 to 75
CCN(C(=O)OC(C)(C)C)c1cnn(C(C)(C)C)c1Cl	50 to 52
CC(C)c1cc(OCCCC(=O)OCc2ccccc2)cc2c1C(=O)N(COc1cc(C(F)(F)F)nn1-c1ccccc1)S2(=O)=O	99 to 101
C=CCN1C(=O)C2CCc3c(OC)c(OC)cc(C)c3C2C1=O (centres undefined)	90 to 91
Cc1ccc(C(=O)NCc2ccncc2)cc1	227
Cc1cc2cc(CN3CCCC3)cnc2cc1NC(=O)c1ccc(-c2ccc(Cl)cc2)cc1F	195 to 198
Cc1cccc(C)c1NC(=O)NO	192 to 193
Cc1ccnc2c([N+](=O)[O-])cc(Cc3cnc(N)nc3N)cc12	256 to 258
CCCOc1ccc(Br)cc1-c1nc2c(CCC)nn(C)c2c(=O)[nH]1	117 to 118
Fc1ccc(Oc2nccc(-c3c(-c4ccc(F)cc4)ncn3C3CCNCC3)n2)cc1	186 to 187
Cc1nnc2cnc(-c3ccccc3)cn12	192 to 195
CC(C)C(=O)NCCCn1c(CCO)nc2c(N)nc3ccccc3c21	196 to 198
Cc1c(C)c(N2Cc3cc(Cl)c(Cl)cc3C2)c(C)c2c1OC(C)(C)C2c1ccc(F)cc1 (centres undefined)	233 to 238
O=C([C@@H]1CCCN1S(=O)(=O)c1ccc2ccccc2c1)N1C[C@@H](c2ccc(Cl)cc2)Sc2ccccc21	147 to 151
NCCSC(c1ccccc1)(c1ccccc1)c1ccccc1	142 to 143
CC(C)OC(=O)C(=C1SC=CS1)S(=O)(=O)C(C)C	124 to 125
Cc1ccc(-c2ccc3c(c2)C=C(C(=O)Nc2ccc(CN(C)C4CCOCC4)cc2)CC(C)O3)cc1 (centres undefined)	170 to 171
Cc1ccccc1-n1cc(-c2ccccc2)c(CBr)n1	67
Cc1ccc(S(=O)(=O)OCC2COc3ccc([N+](=O)[O-])c(C=CC=O)c3O2)cc1 (centres undefined)	138 to 140
Cc1c(-c2ccccc2)oc2c(CS(=O)CCCl)cccc2c1=O (centres undefined)	142 to 145
Cc1c(CNCC(C)C)[nH]c2c(C)c(NC(=O)c3ccc(OC[C@@H]4CCCO4)cc3)ccc12	118 to 119

SMILES	melting point [°C]
CCOC(=O)c1c(N=[N+]=[N-])cc(C(F)(F)F)nc1C(F)(F)F	63 to 64.5
C[C@H](CSC(=O)c1ccc(Cl)c(S(N)(=O)=O)c1)C(=O)N1CCC[C@H]1C(=O)O	143 to 146
Cc1nnc(-c2ccc3ncc(-c4ccc(S(C)=O)cc4)n3c2)o1 (centres undefined)	190
O=C(c1ccccc1)N(c1ccccc1)c1ccc(OCCN2CCOCC2)cc1	81.5 to 84.5
COc1ccc(N2CCOCC2)cc1NC(=S)C(=O)O	156 to 158
Cc1cnc(C)n1CC(O)c1ccc(-c2ccc(N3C[C@H](Cn4ccnn4)OC3=O)cc2F)cn1 (some centres undefined)	195 to 200
CC(=O)OCC(COC(C)=O)(NC(=O)OC(C)(C)C)C(=O)c1ccccc1	112 to 113
CC(C)Nc1nccc(C#C[Si](C)(C)C)n1	93 to 94
N#CCCSN1C(=O)CCC1=O	110 to 112
O=C(COc1ccon1)NCCO[N+](=O)[O-]	67 to 69
CC(=O)c1c(C)sc(C)c1CC(N)=O	123 to 125
COCc1ccc(Cn2cc(-c3ccc(OC)cc3)ccc2=O)cc1	72
O=C(O)C1=Cc2cc(Cl)cc(Br)c2OC1C(F)(F)F (centres undefined)	228 to 229
C#C[C@@](C)(O)CCC1=C(C)C(=O)C(C)=C(C)C1=O	80 to 82
CN1CN(C(=O)c2c(F)cccc2F)C(=O)N(c2ccc(S(=O)(=O)C(F)F)cc2F)C1	203 to 205
CCOC(=O)c1c(Cl)c2cc(F)ccc2n(Cc2ccccc2)c1=O	118
CCOCc1nc2c(N)nc(C)c(C)c2n1NC1CCN(S(C)(=O)=O)CC1	127 to 131
NC(=O)C1C=Cc2ccccc2N1C(=O)c1ccccc1 (centres undefined)	169 to 171
COc1cc2c(cc1OC)-c1ncc(C(N)=O)c(=O)n1CC2	313 to 315
O=C(O)C(O)P(=O)(O)O (centres undefined)	153 to 154
CCN(CC)CCC(=O)NC1(c2ccccc2Cl)C(=O)N(S(=O)(=O)c2ccc3c(c2)CCN3C(=O)N(CC)CC)c2ccc(Cl)cc21 (centres undefined)	130 to 133
COc1cc(N)c(OCc2ccccc2)cc1OC	74
Cc1cc(Cl)cc(NC(=O)C=NO)c1	206 to 207
O=C(Nc1cc(F)c(Cl)nc1C1CCN(CC=Cc2ccc(Cl)cc2)CC1)c1ccnc(Cl)c1	71 to 73
Cc1cccc(C2=CCN(CCCCCC(=O)N3Cc4ccccc4C3)CC2)c1C#N	71
COc1c(Cl)cc(Cl)cc1-n1c(=O)[nH]c2ccccc21	202 to 203

SMILES	melting point [°C]
CCOC(=O)c1nnc(-c2ccc(Cl)cc2)o1	117 to 118
CCC(=O)N[C@@H](C)C(=O)N1CCC[C@H]1C(=O)NC1CCCCC1	172 to 174
COc1ccc(C(=O)O)cc1OC1C=CCC1 (centres undefined)	160 to 163
Cc1ccnc2[nH]c(=O)c(CC(=O)O)cc12	> 250
CC(=O)c1ccc(C(=O)OC(C)(C)C)cc1	57.5 to 58.8
CC(=N)Nc1cccc(O)c1	115 to 118
Cc1nc(-c2cccc(CNc3ccccc3)c2)no1	75 to 76
NC(=O)c1c(Cl)cc(Cl)c(OCCCC(=O)O)c1Cl	165 to 166
CC(Oc1ccc2nc(-c3ccccc3OC(N)=O)sc2c1)c1c(F)ccc(Cl)c1Cl (centres undefined)	210 to 220
Cc1nc(N2CCN(Cc3ccc(F)cc3)C2=O)sc1C(=O)NCc1ncccn1	205 to 207
CCN1C(=O)C(N(CC(F)(F)C(F)(F)F)C(=O)C(C)C(N)=O)COc2ccccc21 (centres undefined)	152
C1=C(c2ccccc2)CCN(Cc2nc3ccccc3[nH]2)C1	253 to 255
N#Cc1cc(Br)c(C(=O)CCl)s1	126 to 128
O=C1NC(=O)C(=Cc2cc(O)c(O)c(Cl)c2)S1	299 to 301
CCC(O)(c1cccc(NS(=O)(=O)CC)c1)c1c[nH]cn1 (centres undefined)	120 to 124
Cc1cn(C(C)(C)C(=O)N(C)C)nc1-c1ccccc1Br	192 to 194
CC(=O)c1c(-c2ccc(O)c3ccccc23)oc2ccccc12	212 to 216
O=[N+]([O-])c1ccc(C=[N+]([O-])c2cccc(CO)c2)cc1	207 to 209
CC1CN(c2ccc(C(N)=O)cc2)CC(C)N1CCC1OCCc2ccccc21 (centres undefined)	206 to 207
CC1C(Cl)(Cl)C1(C)c1ccc(O)cc1 (centres undefined)	79 to 82
CCNC(=O)c1ccc(-n2nnc(C(=O)NC3CC3)c2COCc2ccccc2)c(OCc2ccccc2)c1	132
Nc1nnc(-c2cccc(Oc3cccc(COc4ccc(Cl)c(Cl)c4)c3)c2)s1	128 to 130
Cc1noc2cc3c(cc12)C1(CO3)C(=O)N(Cc2ccccn2)c2ccccc21 (centres undefined)	142 to 143
N#CCCNC(=O)c1cccc(-c2ccc3ccn(Cc4ccc(Cl)cc4Cl)c3c2)c1	153 to 154
OC(c1cccc(F)c1)(c1cccc(F)c1)C1CCNCC1	117 to 118
CCOC(=O)c1cnn2c1c(N1CCOCC1)nc1ccccc12	142 to 143
